# Source: ChEMBL document CHEMBL1158752, “Microbial transformation of 20(S)-protopanaxatriol by Mucor spinosus” (J Nat Prod, 2005)
# Legend:
# [1] = test system: HL-60 (human); test: Cytotoxicity against human HL60 cells after 48 hrs by MTT assay; details: HL-60, 48 h
# [2] = test system: BGC-823 (human); test: Cytotoxicity against human BGC823 cells after 48 hrs by MTT assay; details: BGC-823, 48 h
SMILES,IC50 [1] [µM],IC50 [2] [µM]
C/C(=C/CC[C@](C)(O)[C@H]1CC[C@]2(C)[C@H]1C(=O)C[C@@H]1[C@@]3(C)CC[C@H](O)C(C)(C)[C@@H]3[C@@H](O)C[C@]12C)CO,10.8,> 100
C/C(=C\CC[C@](C)(O)[C@H]1CC[C@]2(C)[C@H]1[C@H](O)C[C@@H]1[C@@]3(C)CC[C@H](O)C(C)(C)[C@@H]3[C@@H](O)C[C@]12C)CO,12.3,> 100
CC(C)=CCC[C@](C)(O)[C@H]1CC[C@]2(C)[C@@H]1[C@H](O)C[C@@H]1[C@@]3(C)CC[C@H](O)C(C)(C)[C@@H]3[C@@H](O)C[C@]12C,16,–
CC(C)=CCC[C@](C)(O)[C@H]1C[C@H](O)[C@]2(C)[C@H]1C(=O)C[C@@H]1[C@@]3(C)CC[C@H](O)C(C)(C)[C@@H]3[C@@H](O)C[C@]12C,15,> 100
C/C(=C\CC[C@](C)(O)[C@H]1CC[C@]2(C)[C@H]1C(=O)C[C@@H]1[C@@]3(C)CC[C@H](O)C(C)(C)[C@@H]3[C@@H](O)C[C@]12C)CO,16.3,> 100
